Where two headings read alike, the source gives them in different places.
Tests used:
HCV 1b genotype replicon = test: HCV replicon assay (qRT-PCR or luciferase), genotype 1b; assay type: cell-based; conditions: Hepatitis C virus
In short: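 Genotype 1b subgenomic replicon Huh-luc/neo-ET cells (7,000/well) treated with compound for 72 h at 37 °C, 0.2% DMSO final; replication read by firefly luciferase. EC50 alternatively from qRT-PCR of HCV RNA normalized to GAPDH; cytotoxicity by MTS.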

HCV 1a genotype replicon = test: HCV replicon assay (qRT-PCR or luciferase), genotype 1a; assay type: cell-based; conditions: Hepatitis C virus
In short: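 Bartenschlager HCV replicon Huh cells; EC50 from HCV RNA by TaqMan qRT-PCR normalised to GAPDH, cytotoxicity by MTS. Combination studies in Huh-luc/neo-ET cells seeded at 7,000/well, compounds in 6-point two-fold dilutions, 0.2% DMSO final, 72 h at 37 °C, luciferase read-out.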

[1] = Table 12, range class, read-out: 1b EC50 Range
[2] = Table 12, range class, read-out: 1a EC50 Range
[3] = Table 12, numeric values, read-out: 1b EC50
[4] = Table 12, numeric values, read-out: 1a EC50

Row | Compound | EC50 (HCV 1b genotype replicon; [1]) [nM] | EC50 (HCV 1a genotype replicon; [2]) [nM] | EC50 (HCV 1b genotype replicon; [3]) [nM] | EC50 (HCV 1a genotype replicon; [4]) [nM] | EC50 (HCV 1a genotype replicon; read-out: 1a EC50 Range, Table 12, range class) [nM]
1 | COC(=O)N[C@H](C(=O)N1CCC[C@H]1c1ncc(-c2ccc(C#Cc3ccc4nc([C@@H]5C[C@@]6(CCC(=O)O6)CN5C(=O)[C@@H](NC(=O)OC)C(C)C)[nH]c4c3)cc2)[nH]1)C(C)C [Example 635] | < 1 | < 1 | – | – | –
2 | COC(=O)N[C@H](C(=O)N1CC(F)(F)C[C@H]1c1nc(-c2ccc(C#Cc3ccc4[nH]c([C@@H]5C[C@@]6(CCCO6)CN5C(=O)[C@@H](NC(=O)OC)C(C)C)nc4c3)cc2)c[nH]1)C(C)C [Example 627] | – | < 1 | 0.01 | – | –
3 | COC(=O)N[C@H](C(=O)N1CCC[C@H]1c1ncc(-c2ccc3nc(-c4ccc5nc([C@@H]6CC7(CC7)CN6C(=O)[C@@H](NC(=O)OC)C(C)C)[nH]c5c4)cnc3c2)[nH]1)C(C)C [Example 643] | – | < 1 | 0.054 | – | –
4 | COC(=O)N[C@H](C(=O)N1C[C@@]2(C[C@H]1c1nc(-c3ccc(C#Cc4ccc5[nH]c([C@@H]6CC7(CC7)CN6C(=O)[C@@H](NC(=O)OC)C(C)C)nc5c4)cc3)c[nH]1)CC2(F)F)C(C)C [Example 687] | – | < 1 | 0.01 | – | –
5 | COC(=O)N[C@@H](CC#N)C(=O)N1CCC[C@H]1c1nc(-c2ccc(C#Cc3ccc4[nH]c([C@@H]5CC6(CC6)CN5C(=O)[C@@H](NC(=O)OC)C(C)C)nc4c3)cc2)c[nH]1 [Example 621] | < 1 | – | – | 0.207 | –
6 | COC(=O)N[C@H](C(=O)N1CC2(CC2)C[C@H]1c1ncc(-c2ccc(C#Cc3ccc4nc([C@@H]5C[C@@H](C6CC6)CN5C(=O)[C@@H](NC(=O)OC)C(C)C)[nH]c4c3)cc2)[nH]1)C(C)C [Example 612] | < 1 | < 1 | – | – | –
7 | COC(=O)N[C@H](C(=O)N1CC2(CC2)C[C@H]1c1nc(-c2ccc(C#Cc3ccc4[nH]c([C@@H]5C[C@@]6(CCCO6)CN5C(=O)[C@@H](NC(=O)OC)C(C)C)nc4c3)cc2)c[nH]1)C(C)C [Example 555] | – | < 1 | 0.007 | – | –
8 | COC(=O)N[C@H](C(=O)N1CCC[C@H]1c1nc(-c2ccc(C#Cc3ccc4[nH]c([C@@H]5C[C@]6(CCOC6)CN5C(=O)[C@@H](NC(=O)OC)C(C)C)nc4c3)cc2)c[nH]1)C(C)C [Example 564] | – | < 1 | 0.008 | – | –
9 | COC(=O)N[C@H](C(=O)N1CCC[C@H]1c1nc(-c2ccc(C#Cc3ccc4[nH]c([C@@H]5C[C@@]6(CCCO6)CN5C(=O)[C@@H](NC(=O)OC)C(C)C)nc4c3)cc2)c[nH]1)C(C)C [Example 551] | – | < 1 | 0.013 | – | –
10 | COC(=O)N[C@H](C(=O)N1C[C@]2(C[C@H]1c1ncc(-c3ccc(C#Cc4ccc5nc([C@@H]6CC7(CC7)CN6C(=O)[C@@H](NC(=O)OC)C(C)C)[nH]c5c4)cc3)[nH]1)CC2(F)F)C(C)C [Example 614] | – | < 1 | 0.004 | – | –
11 | COC(=O)N[C@H](C(=O)N1CCC[C@H]1c1nc(-c2ccc3nc(-c4ccc5[nH]c([C@@H]6CC7(CC7)CN6C(=O)[C@@H](NC(=O)OC)C(C)C)nc5c4)ccc3c2)c[nH]1)C(C)C [Example 574] | – | – | 0.036 | 0.127 | –
12 | COC(=O)N[C@H](C(=O)N1CCC[C@H]1c1nc(-c2ccc(C#Cc3ccc4[nH]c([C@@H]5C[C@@]6(CCOC6)CN5C(=O)[C@@H](NC(=O)OC)C(C)C)nc4c3)cc2)c[nH]1)C(C)C [Example 630] | – | < 1 | 0.011 | – | –
13 | COC(=O)N[C@H](C(=O)N1CC2(CC2)C[C@H]1c1ncc(-c2ccc(C#Cc3ccc4nc([C@@H]5C[C@@]6(CCCOC6)CN5C(=O)[C@@H](NC(=O)OC)C(C)C)[nH]c4c3)cc2)[nH]1)C(C)C [Example 638] | – | < 1 | 0.007 | – | –
14 | COC(=O)N[C@H](C(=O)N1CCC[C@H]1c1nc(-c2ccc(C#Cc3ccc4[nH]c([C@@H]5CC6(CCOCC6)CN5C(=O)[C@@H](NC(=O)OC)C(C)C)nc4c3)cc2)c[nH]1)C(C)C [Example 568] | – | < 1 | 0.009 | – | –
15 | COC(=O)N[C@H](C(=O)N1CCC[C@H]1c1ncc(-c2ccc(C#Cc3ccc4nc([C@@H]5CC6(CC6)CN5C(=O)[C@H](NC(=O)OC)c5ccccc5)[nH]c4c3)cc2)[nH]1)C(C)C [Example 646] | – | – | 0.005 | – | < 1
16 | COC(=O)N[C@H](C(=O)N1CC2(CC2)C[C@H]1c1ncc(-c2ccc(C#Cc3ccc4nc([C@@H]5C[C@H](C6CC6)CN5C(=O)[C@@H](NC(=O)OC)C(C)C)[nH]c4c3)cc2)[nH]1)C(C)C [Example 691] | < 1 | < 1 | – | – | –
17 | COC(=O)N[C@H](C(=O)N1CC2(CC2)C[C@H]1c1ncc(-c2ccc(C#Cc3ccc4nc([C@@H]5C[C@@]6(CCCCO6)CN5C(=O)[C@@H](NC(=O)OC)C(C)C)[nH]c4c3)cc2)[nH]1)C(C)C [Example 633] | < 1 | – | – | 0.035 | –

Row | Compound | EC50 (HCV 1b genotype replicon; [1]) [nM] | EC50 (HCV 1a genotype replicon; [2]) [nM] | EC50 (HCV 1b genotype replicon; [3]) [nM] | EC50 (HCV 1a genotype replicon; [4]) [nM] | EC50 (HCV 1a genotype replicon; read-out: 1a EC50 Range, Table 12, range class) [nM]
18 | COC(=O)N[C@H](C(=O)N1CCC[C@H]1c1nc(-c2ccc3cc(-c4ccc5[nH]c([C@@H]6CC7(CC7)CN6C(=O)[C@@H](NC(=O)OC)C(C)C)nc5c4)ccc3c2)c[nH]1)C(C)C [Example 692] | – | < 1 | 0.011 | – | –
19 | COC(=O)N[C@H](C(=O)N1CC2(CC2)C[C@H]1c1ncc(-c2ccc(C#Cc3ccc4nc([C@@H]5C[C@]6(CCOC6)CN5C(=O)[C@@H](NC(=O)OC)C(C)C)[nH]c4c3)cc2)[nH]1)C(C)C [Example 565] | – | < 1 | 0.011 | – | –
20 | COC(=O)N[C@H](C(=O)N1CCC[C@H]1c1nc(-c2ccc3nc(-c4ccc5[nH]c([C@@H]6CC7(CC7)CN6C(=O)[C@@H](NC(=O)OC)C(C)C)nc5c4)ncc3c2)c[nH]1)C(C)C [Example 644] | – | < 1 | 0.045 | – | –
21 | COC(=O)N[C@H](C(=O)N1C[C@H](F)C[C@H]1c1nc(-c2ccc(C#Cc3ccc4[nH]c([C@@H]5C[C@@]6(CCCO6)CN5C(=O)[C@@H](NC(=O)OC)C(C)C)nc4c3)cc2)c[nH]1)C(C)C [Example 629] | – | – | 0.017 | 0.18 | –
22 | COC(=O)N[C@H](C(=O)N1C[C@]2(CCCO2)C[C@H]1c1nc(-c2ccc(C#Cc3ccc4[nH]c([C@@H]5CC6(CC6)CN5C(=O)[C@@H](NC(=O)OC)C(C)C)nc4c3)cc2)c[nH]1)C(C)C [Example 546] | – | < 1 | 0.012 | – | –
23 | COC(=O)N[C@H](C(=O)N1CC2(CC2)C[C@H]1c1nc2ccc(C#Cc3ccc(-c4cnc([C@@H]5C[C@H]6C[C@H]6N5C(=O)[C@@H](NC(=O)OC)C(C)C)[nH]4)cc3)cc2[nH]1)C(C)C [Example 637] | – | < 1 | 0.004 | – | –
24 | COC(=O)N[C@H](C(=O)N1C[C@@H](O)C[C@H]1c1nc(-c2ccc(C#Cc3ccc4[nH]c([C@@H]5C[C@@]6(CCCO6)CN5C(=O)[C@@H](NC(=O)OC)C(C)C)nc4c3)cc2)c[nH]1)C(C)C [Example 561] | – | < 1 | 0.024 | – | –
25 | [2H]c1c([2H])c(-c2c[nH]c([C@@H]3CC4(CC4)CN3C(=O)[C@@H](NC(=O)OC)C(C)C)n2)c([2H])c([2H])c1C#Cc1ccc2[nH]c([C@@H]3CC4(CC4)CN3C(=O)[C@@H](NC(=O)OC)C(C)C)nc2c1 [Example 575] | < 1 | < 1 | – | – | –
26 | COC(=O)N[C@H](C(=O)N1C[C@@H](OC)C[C@H]1c1nc(-c2ccc(C#Cc3ccc4[nH]c([C@@H]5C[C@@]6(CCCO6)CN5C(=O)[C@@H](NC(=O)OC)C(C)C)nc4c3)cc2)c[nH]1)C(C)C [Example 558] | < 1 | < 1 | – | – | –
27 | COC(=O)N[C@H](C(=O)N1C[C@](C)(F)C[C@H]1c1nc(-c2ccc(C#Cc3ccc4[nH]c([C@@H]5C[C@@]6(CCCO6)CN5C(=O)[C@@H](NC(=O)OC)C(C)C)nc4c3)cc2)c[nH]1)C(C)C [Example 567] | – | < 1 | 0.015 | – | –
28 | COC(=O)N[C@H](C(=O)N1CC2(CC2)C[C@H]1c1ncc(-c2ccc(C#Cc3ccc4nc([C@@H]5C[C@]6(CCCOC6)CN5C(=O)[C@@H](NC(=O)OC)C(C)C)[nH]c4c3)cc2)[nH]1)C(C)C [Example 639] | – | < 1 | 0.008 | – | –
29 | COC(=O)NCCCC[C@H](NC(=O)OC)C(=O)N1CCC[C@H]1c1nc(-c2ccc(C#Cc3ccc4[nH]c([C@@H]5CC6(CC6)CN5C(=O)[C@@H](NC(=O)OC)C(C)C)nc4c3)cc2)c[nH]1 [Example 693] | < 1 | < 1 | – | – | –
30 | COC(=O)N[C@H](C(=O)N1CC2(CC2)C[C@H]1c1ncc(-c2ccc(C#Cc3ccc4nc([C@@H]5CC6(CC6)CN5C(=O)[C@H](NC(=O)OC)c5ccc(F)cc5)[nH]c4c3)cc2)[nH]1)C(C)C [Example 580] | – | < 1 | 0.007 | – | –
31 | COC(=O)N[C@H](C(=O)N1CC2(CC2)C[C@H]1c1nc2ccc(C#Cc3ccc(-c4cnc([C@@H]5CC6(CC6)CN5C(=O)[C@@H](NC(=O)OC)[C@@H](C)OCCF)[nH]4)cc3)cc2[nH]1)C(C)C [Example 547] | – | < 1 | 0.018 | – | –
32 | COC(=O)N[C@@H](CF)C(=O)N1CC2(CC2)C[C@H]1c1nc(-c2ccc(C#Cc3ccc4[nH]c([C@@H]5CC6(CC6)CN5C(=O)[C@@H](NC(=O)OC)C(C)C)nc4c3)cc2)c[nH]1 [Example 615] | – | < 1 | 0.005 | – | –
33 | COC(=O)N[C@H](C(=O)N1C[C@]2(CCCO2)C[C@H]1c1ncc(-c2ccc(C#Cc3ccc4nc([C@@H]5C[C@@]6(CCCO6)CN5C(=O)[C@@H](NC(=O)OC)C(C)C)[nH]c4c3)cc2)[nH]1)C(C)C [Example 625] | < 1 | < 1 | – | – | –
34 | COC(=O)N[C@H](C(=O)N1CCC[C@H]1c1ncc(-c2ccc(C#Cc3ccc4nc([C@@H]5C[C@@]6(CCCOC6)CN5C(=O)[C@@H](NC(=O)OC)C(C)C)[nH]c4c3)cc2)[nH]1)C(C)C [Example 569] | – | < 1 | 0.009 | – | –
